For 74 compounds, IC50 results are on record in patent publication US7557213B2, “Substituted quinolones and methods of use” (ChemoCentryx, Inc., priority 2005, dated 2009).

The first test deals with T1, CCXCKR2 receptor (Homo sapiens, UniProt P25106).
T1 construct: expressed in transfected cells; host or cells: MDA-MB-435S transfected with pcDNA3.1(+)-hRDC1 and/or MCF-7 (endogenous receptor)
T1 sequence (P25106 whole entry): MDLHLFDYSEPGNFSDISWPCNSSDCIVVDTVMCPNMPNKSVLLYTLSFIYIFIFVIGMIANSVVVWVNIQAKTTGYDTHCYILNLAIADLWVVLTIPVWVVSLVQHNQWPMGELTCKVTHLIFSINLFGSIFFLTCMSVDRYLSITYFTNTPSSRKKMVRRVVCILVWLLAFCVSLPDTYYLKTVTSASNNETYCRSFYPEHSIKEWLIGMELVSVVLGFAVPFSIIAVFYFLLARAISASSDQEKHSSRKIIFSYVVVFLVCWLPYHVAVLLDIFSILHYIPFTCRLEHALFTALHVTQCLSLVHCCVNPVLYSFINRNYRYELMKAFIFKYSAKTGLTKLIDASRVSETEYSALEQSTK
Kind of test: Displacement of 125I-labeled SDF-1 from the CCXCKR2 receptor on MCF-7 and/or CCXCKR2-transfected MDA-MB-435S cells (radioligand binding, filtration).
Settings: not given
`Cc1cccc(Cn2cc(C(=O)c3ccc(C)c(C)c3)c(=O)c3ccccc32)c1` [Example 9] registered an IC50 below 100 nM. `Cc1ccc(C(=O)c2cn(Cc3cccc(F)n3)c3ccccc3c2=O)cc1C` [Example 70] showed an IC50 below 100 nM.

Staying with this test, now noted: 125I SDF-1, 3 hr at 4° C., MCF-7 and/or MDA-MB-435S cells; read-out: Activity (concentration displacing at least 50% of the SDF-1 from the CCXCKR2 receptor).
For `Cc1ccc(C(=O)c2cn(Cc3cccc(-c4cncnc4)n3)c3ccccc3c2=O)cc1C` [Example 44], the IC50 is below 100 nM. On the same count and under the same terms, the value for `Cc1ccc(C(=O)c2cn(Cc3c(C)cccc3C)c3ccccc3c2=O)cc1C` [Example 58] was 500 to 20000 nM; that for `Cc1cccc(Cn2cc(C(=O)c3cc(C)on3)c(=O)c3ccccc32)n1` [Example 208] was 500 to 20000 nM. Same read-out and setting: the value for `Cc1cccc(C(=O)c2cn(Cc3cccc(Br)n3)c3ccccc3c2=O)n1` [Example 122] was 100 to 500 nM. Still for that read-out and setting: the value for `COc1ccc(C(=O)c2cn(Cc3cccc(Cl)c3)c3ccccc3c2=O)cn1` [Example 246] was below 100 nM; that for `Cc1ccc(C(=O)c2cn(Cc3ncccc3F)c3ccccc3c2=O)cc1C` [Example 37] was below 100 nM. For the compound `Cc1cc(C(=O)c2cn(Cc3cccc(Br)n3)c3ccccc3c2=O)ccc1F` [Example 203], the IC50 is below 100 nM.

Take `Cc1ccc(C(=O)c2cn(Cc3cccc(Br)n3)c3ccccc3c2=O)c(C)n1` [Example 185]: the IC50 is below 100 nM. Same read-out and setting: the value for `Cc1cc(C(=O)c2cn(Cc3cccc(N)n3)c3ccccc3c2=O)cnc1C` [Example 91] was below 100 nM; that for `O=C(NC1CC1)c1ccccc1C(=O)c1cn(Cc2cccc(Br)n2)c2ccccc2c1=O` [Example 170] was 500 to 20000 nM.

Turning to `COc1ccc(C(=O)c2cn(Cc3cccc(Br)n3)c3nc(C(F)(F)F)ccc3c2=O)cc1F` [Example 226], the IC50 was 500 to 20000 nM. On to `COc1cc(C(=O)c2cn(Cc3cccc(C)n3)c3ncccc3c2=O)ccc1Cl` [Example 166], for which the IC50 is below 100 nM.

Take `CN(C)c1ccc(C(=O)c2cn(Cc3cccc(Br)n3)c3ccccc3c2=O)cn1` [Example 197]: the IC50 was below 100 nM. Consider `Cc1cc2c(=O)c(C(=O)c3ccc(C)c(C)c3)cn(Cc3cccc(Br)n3)c2c(C)n1` [Example 109], for which the IC50 lay in the range of 500 to 20000 nM. On the same count and under the same terms, the value for `COc1ccc(C(=O)c2cn(Cc3cccc(C)n3)c3ccc(C)nc3c2=O)cc1C` [Example 216] was 500 to 20000 nM; that for `Cc1cc(C(=O)c2cn(Cc3ccccc3F)c3ccccc3c2=O)ccn1` [Example 24] was 500 to 20000 nM. The same measure, in the same setting: the value for `COc1ccc(C(=O)c2cn(Cc3cccc(Br)n3)c3ncccc3c2=O)cc1OC` [Example 193] was below 100 nM; that for `Cc1cccc(Cn2cc(C(=O)c3ccc(Cl)cc3)c(=O)c3ccccc32)n1` [Example 184] was below 100 nM.

With `Cc1ccnc(C(=O)c2cn(Cc3cccc(Br)n3)c3ccccc3c2=O)c1` [Example 150], the IC50 was 100 to 500 nM. Still for that read-out and setting: the value for `Cc1ccc(C(=O)c2cn(Cc3cccc(Br)n3)c3cc(F)c(F)cc3c2=O)cc1C` [Example 73] was below 100 nM; that for `Cc1ccc(C(=O)c2cn(Cc3ncccn3)c3ccccc3c2=O)cc1C` [Example 56] was below 100 nM; that for `Cc1ccc(C(=O)c2cn(C(C)c3cccc(Br)n3)c3ccccc3c2=O)cc1C` (centres unmarked) [Example 75] was below 100 nM.

For `O=C(c1ccc(Cl)nc1)c1cn(Cc2cccc(Br)n2)c2ccccc2c1=O` [Example 188], the IC50 is below 100 nM.

For `Cc1ccc(C(=O)c2cn(Cc3cccc(Br)[n+]3[O-])c3ccccc3c2=O)cc1C` [Example 88], the IC50 is 100 to 500 nM.

As for `COc1ccc(C(=O)c2cn(Cc3cccc(C)n3)c3cccnc3c2=O)cc1C` [Example 206], the IC50 lay in the range of 500 to 20000 nM. For `Cc1cccc(Cn2cc(C(=O)c3ccccc3)c(=O)c3ccccc32)c1` [Example 18], the IC50 was 100 to 500 nM. On the same count and under the same terms, the value for `O=C(c1ccc(O)nc1)c1cn(Cc2cccc(Br)n2)c2ccccc2c1=O` [Example 210] was 500 to 20000 nM. For the compound `Cc1ccc(C(=O)c2cn(Cc3cscn3)c3ccccc3c2=O)cc1C` [Example 31], the IC50 was below 100 nM. Take `O=C(c1ccncc1)c1cn(Cc2ccccn2)c2ccccc2c1=O` [Example 16]: the IC50 lay in the range of 500 to 20000 nM. Turning to `Cc1ccc(C(=O)c2cn(Cc3cccc(Br)n3)c3ccccc3c2=O)nc1C` [Example 64], the IC50 is below 100 nM. Same read-out and setting: the value for `CN(C)c1ccc(C(=O)c2cn(Cc3cccc(Cl)c3)c3ccccc3c2=O)cn1` [Example 245] was below 100 nM. With `Cc1ccc(C(=O)c2cn(Cc3ccc(C(F)(F)F)o3)c3ccccc3c2=O)cc1C` [Example 65], the IC50 was below 100 nM. The same measure, in the same setting: the value for `COc1ccc(C(=O)c2cn(Cc3cccc(C(F)(F)F)c3)c3ncccc3c2=O)cc1C` [Example 196] was below 100 nM. The same measure, in the same setting: the value for `CSc1ccc(C(=O)c2cn(Cc3cccc(Br)n3)c3ccccc3c2=O)cc1` [Example 186] was below 100 nM; that for `O=C(c1ccc2c(c1)OCCO2)c1cn(Cc2cccc(Cl)c2)c2ccccc2c1=O` [Example 233] was below 100 nM; that for `CNCc1ccc(C(=O)c2cn(Cc3cccc(Br)n3)c3ccccc3c2=O)cc1` [Example 153] was 100 to 500 nM. For the compound `COc1ccc(C(=O)c2cn(Cc3cccc(N)n3)c3ccccc3c2=O)cc1C` [Example 209], the IC50 was in the range of 100 to 500 nM. For `Cc1ccc(C(=O)c2cn(Cc3cccc(Br)n3)c3c(C)ccnc3c2=O)cc1C` [Example 116], the IC50 is 500 to 20000 nM. On to `CC(C)c1ccc(C(=O)c2cn(Cc3cccc(Br)n3)c3ccccc3c2=O)cc1` [Example 148], for which the IC50 was below 100 nM. The same measure, in the same setting: the value for `O=C(c1ccc(Cl)c(Cl)c1)c1cn(Cc2cccc(Br)n2)c2ccccc2c1=O` [Example 100] was below 100 nM; that for `C[S+]([O-])c1ccc(C(=O)c2cn(Cc3cccc(Br)n3)c3ccccc3c2=O)cc1` (centres unmarked) [Example 190] was 100 to 500 nM; that for `COc1ccc(C(=O)c2cn(Cc3cccc(C#N)n3)c3ccccc3c2=O)cc1F` [Example 211] was below 100 nM. Still for that read-out and setting: the value for `COC(=O)c1ccccc1C(=O)c1cn(Cc2cccc(Br)n2)c2ccccc2c1=O` [Example 155] was below 100 nM; that for `Cc1cc(C(=O)c2cn(Cc3cccc(C(F)(F)F)n3)c3ccccc3c2=O)cnc1C` [Example 82] was below 100 nM.

Consider `Cc1cc(C(=O)c2cn(Cc3cccc(C#N)n3)c3ccccc3c2=O)cnc1C` [Example 85], for which the IC50 was below 100 nM. On the same count and under the same terms, the value for `Cc1ccc(C(=O)c2cn(Cc3ccccc3C)c3cc4c(cc3c2=O)OCCO4)cc1C` [Example 6] was 500 to 20000 nM; that for `CNc1cccc(Cn2cc(C(=O)c3cnc(C)c(C)c3)c(=O)c3ccccc32)n1` [Example 99] was 100 to 500 nM; that for `Cc1ccc(C(=O)c2cn(Cc3cccc(N(C)C)n3)c3ccccc3c2=O)cc1C` [Example 92] was 500 to 20000 nM.

`Cc1ccc2c(=O)c(C(=O)c3cnc(C)c(C)c3)cn(Cc3cccc(Br)n3)c2n1` [Example 146]: the IC50 fell in the range of 100 to 500 nM. Turning to `CN(C)C(=O)c1cccc(C(=O)c2cn(Cc3cccc(Br)n3)c3ccccc3c2=O)c1` [Example 180], the IC50 is below 100 nM. Same read-out and setting: the value for `COc1ccc(C(=O)c2cn(Cc3cncc(C)n3)c3ccccc3c2=O)cc1F` [Example 225] was below 100 nM; that for `Cc1cccc(Cn2cc(C(=O)c3cccnc3)c(=O)c3ccccc32)n1` [Example 35] was 500 to 20000 nM. Still for that read-out and setting: the value for `COc1ccc(C(=O)c2cn(Cc3cccc(Br)n3)c3ncccc3c2=O)cc1F` [Example 174] was below 100 nM; that for `CN(C)Cc1ccccc1C(=O)c1cn(Cc2cccc(Br)n2)c2ccccc2c1=O` [Example 129] was below 100 nM; that for `COc1ccc(C(=O)c2cn(Cc3cccc(Br)n3)c3ccccc3c2=O)cn1` [Example 189] was below 100 nM. On to `COc1ccc(C(=O)c2cn(Cc3cccc(C#N)n3)c3ccccc3c2=O)cc1C` [Example 207], for which the IC50 is below 100 nM. Still for that read-out and setting: the value for `Cc1ccc(C(=O)c2cn(Cc3cccc(O)n3)c3ccccc3c2=O)cc1C` [Example 213] was 500 to 20000 nM; that for `Cc1ccc(C(=O)c2cn(Cc3cccnc3)c3ccccc3c2=O)cc1C` [Example 10] was 500 to 20000 nM; that for `Cc1ccc(C(=O)c2cn(Cc3cccc(Br)n3)c3cc(F)ccc3c2=O)cc1C` [Example 59] was below 100 nM. For the compound `CC(C)(C)c1ccc(C(=O)c2cn(Cc3cccc(Br)n3)c3ccccc3c2=O)cc1` [Example 114], the IC50 is below 100 nM. Same read-out and setting: the value for `Cc1ccc(C(=O)c2cn(Cc3cccc(NS(C)(=O)=O)n3)c3ccccc3c2=O)cc1C` [Example 60] was 100 to 500 nM.

For `Cc1cccnc1C(=O)c1cn(Cc2cccc(Br)n2)c2ccccc2c1=O` [Example 149], the IC50 lay in the range of 100 to 500 nM. Still for that read-out and setting: the value for `Cc1ccc(C(=O)c2cn(Cc3ncon3)c3ccccc3c2=O)cc1C` [Example 29] was below 100 nM. Same read-out and setting: the value for `O=C(c1cnccn1)c1cn(Cc2ccccc2F)c2ccccc2c1=O` [Example 61] was 500 to 20000 nM.

On to `Cc1nc(C(=O)c2cn(Cc3cccc(Br)n3)c3ccccc3c2=O)sc1C` [Example 147], for which the IC50 was below 100 nM. With `Cc1ccc(C(=O)c2cn(Cc3cccc(C(N)=O)n3)c3ccccc3c2=O)cc1C` [Example 86], the IC50 lay in the range of 500 to 20000 nM. With `O=C(c1ccc2c(c1)CCO2)c1cn(Cc2cccc(Br)n2)c2ccccc2c1=O` [Example 131], the IC50 was below 100 nM. The same measure, in the same setting: the value for `Cc1cccc(Cn2cc(C(=O)c3ccc(C)c(C)c3)c(=O)c3ncccc32)n1` [Example 134] was below 100 nM; that for `COc1ccc(C(=O)c2cn(Cc3cccc(Br)c3)c3ccccc3c2=O)cn1` [Example 239] was 100 to 500 nM.

For `Cc1ccc(C(=O)c2cn(Cc3cccc(Br)n3)c3ccccc3c2=O)nc1` [Example 151], the IC50 was below 100 nM. As for `Cc1ccc(C(=O)c2cn(Cc3nnsc3Cl)c3ccccc3c2=O)cc1C` [Example 28, 1-(5-Chloro-[1,2,3]thiadiazol-4-ylmethyl)-3-(3,4-dimethyl-benzoyl)-1H-quinolin-4-one], the IC50 is below 100 nM. For the compound `Cc1ccc(C(=O)c2cn(CCc3ccccc3)c3ccccc3c2=O)cc1C` [Example 27, 3-(3,4-Dimethyl-benzoyl)-1-phenethyl-1H-quinolin-4-one], the IC50 fell in the range of 500 to 20000 nM.
